In the NIST ThermoML archive (doi:10.1016/j.jct.2013.10.023):
± gives the expanded uncertainty stated by the source.

Test: xn = mol fraction of the nth substance listed
Details: 101 kPa, Liquid; for viscosity: Capillary tube (Ostwald / Ubbelohde) method; for mass density: Vibrating tube method

CC(=O)[O-].CCn1cc[n+](C)c1 [1-ethyl-3-methylimidazolium acetate] + CCOS(=O)(=O)[O-].CCn1cc[n+](C)c1
Details	mass density [kg/m3]	viscosity [mPa·s]
298.15 K, x1 = 0.0993	1226.62 ± 10	97.2 ± 2.2
298.15 K, x1 = 0.2011	1214.23 ± 10	99.93 ± 2.3
298.15 K, x1 = 0.2973	1202.11 ± 10	101.8 ± 2.4
298.15 K, x1 = 0.3917	1189.85 ± 10	105.2 ± 2.5
298.15 K, x1 = 0.5069	1174.26 ± 10	110.1 ± 2.6
298.15 K, x1 = 0.5988	1161.36 ± 10	114.1 ± 2.8
298.15 K, x1 = 0.705	1145.81 ± 10	120.1 ± 3
298.15 K, x1 = 0.8012	1131.13 ± 10	125.8 ± 3.2
298.15 K, x1 = 0.9007	1115.5 ± 10	131 ± 3.3
298.15 K, x1 = 1	1099.04 ± 10	138.4 ± 3.6
308.15 K, x1 = 0.0993	1219.9 ± 10	61.11 ± 1.3
308.15 K, x1 = 0.2011	1207.5 ± 10	61.27 ± 1.3
308.15 K, x1 = 0.2973	1195.48 ± 10	62.35 ± 1.3
308.15 K, x1 = 0.3917	1183.26 ± 10	63.63 ± 1.3
308.15 K, x1 = 0.5069	1167.73 ± 10	65.47 ± 1.4
308.15 K, x1 = 0.5988	1154.86 ± 10	66.99 ± 1.4
308.15 K, x1 = 0.705	1139.5 ± 10	69.07 ± 1.5
308.15 K, x1 = 0.8012	1124.87 ± 10	71.01 ± 1.5
308.15 K, x1 = 0.9007	1109.3 ± 10	73.4 ± 1.6
308.15 K, x1 = 1	1092.95 ± 10	76.1 ± 1.6
318.15 K, x1 = 0.0993	1213.21 ± 10	40.47 ± 0.85
318.15 K, x1 = 0.2011	1200.9 ± 10	41.05 ± 0.86
318.15 K, x1 = 0.2973	1188.92 ± 10	41.59 ± 0.87
318.15 K, x1 = 0.3917	1176.76 ± 10	42.12 ± 0.88
318.15 K, x1 = 0.5069	1161.31 ± 10	41.77 ± 0.88
318.15 K, x1 = 0.5988	1148.5 ± 10	43.3 ± 0.91
318.15 K, x1 = 0.705	1133.15 ± 10	43.93 ± 0.92
318.15 K, x1 = 0.8012	1118.65 ± 10	44.55 ± 0.93
318.15 K, x1 = 0.9007	1103.14 ± 10	45.24 ± 0.95
318.15 K, x1 = 1	1086.88 ± 10	45.9 ± 0.96
328.15 K, x1 = 0.0993	1206.59 ± 10	29.06 ± 0.61
328.15 K, x1 = 0.2011	1194.33 ± 10	29.19 ± 0.61
328.15 K, x1 = 0.2973	1182.38 ± 10	29.32 ± 0.61
328.15 K, x1 = 0.3917	1170.26 ± 10	29.44 ± 0.62
328.15 K, x1 = 0.5069	1154.88 ± 10	29.58 ± 0.62
328.15 K, x1 = 0.5988	1142.13 ± 10	29.69 ± 0.62
328.15 K, x1 = 0.705	1126.87 ± 10	29.81 ± 0.63
328.15 K, x1 = 0.8012	1112.55 ± 10	29.91 ± 0.63
328.15 K, x1 = 0.9007	1097.01 ± 10	30 ± 0.63
328.15 K, x1 = 1	1080.86 ± 10	30.1 ± 0.63
338.15 K, x1 = 0.0993	1200.01 ± 10	20.7 ± 0.43
338.15 K, x1 = 0.2011	1187.79 ± 10	20.78 ± 0.44
338.15 K, x1 = 0.2973	1175.91 ± 10	20.84 ± 0.44
338.15 K, x1 = 0.3917	1163.85 ± 10	20.89 ± 0.44
338.15 K, x1 = 0.5069	1148.54 ± 10	20.92 ± 0.44
338.15 K, x1 = 0.5988	1135.86 ± 10	20.92 ± 0.44
338.15 K, x1 = 0.705	1120.68 ± 10	20.89 ± 0.44
338.15 K, x1 = 0.8012	1106.35 ± 10	20.86 ± 0.44
338.15 K, x1 = 0.9007	1090.93 ± 10	20.84 ± 0.44
338.15 K, x1 = 1	1074.86 ± 10	20.8 ± 0.44
348.15 K, x1 = 0.0993	1196.34 ± 10	15.63 ± 0.33
348.15 K, x1 = 0.2011	1184.12 ± 10	15.58 ± 0.33
348.15 K, x1 = 0.2973	1172.27 ± 10	15.5 ± 0.33
348.15 K, x1 = 0.3917	1160.23 ± 10	15.39 ± 0.32
348.15 K, x1 = 0.5069	1144.94 ± 10	15.24 ± 0.32
348.15 K, x1 = 0.5988	1132.29 ± 10	15.1 ± 0.32
348.15 K, x1 = 0.705	1117.12 ± 10	14.91 ± 0.31
348.15 K, x1 = 0.8012	1102.78 ± 10	14.72 ± 0.31
348.15 K, x1 = 0.9007	1087.39 ± 10	14.51 ± 0.3
348.15 K, x1 = 1	1071.37 ± 10	14.28 ± 0.3
358.15 K, x1 = 0.0993	1187 ± 10	12.57 ± 0.26
358.15 K, x1 = 0.2011	1174.89 ± 10	12.8 ± 0.27
358.15 K, x1 = 0.2973	1163.13 ± 10	12.95 ± 0.27
358.15 K, x1 = 0.3917	1151.18 ± 10	12.93 ± 0.27
358.15 K, x1 = 0.5069	1136.03 ± 10	12.9 ± 0.27
358.15 K, x1 = 0.5988	1123.47 ± 10	12.81 ± 0.27
358.15 K, x1 = 0.705	1108.41 ± 10	12.7 ± 0.27
358.15 K, x1 = 0.8012	1094.15 ± 10	12.47 ± 0.26
358.15 K, x1 = 0.9007	1078.94 ± 10	12.17 ± 0.26
358.15 K, x1 = 1	1063.03 ± 10	11.53 ± 0.24
